Measured values taken from patent US11932624B2, “MDM2 degraders and uses thereof” (Kymera Therapeutics, Inc., priority 2020, dated 2024).

The compounds below were run on RS411 cells (assay: Cell Viability CTG Assay (CellTiter Glo) in RS411 cells). Conditions: Homo sapiens, RS4-11, 24 h, duration 1 day.
Type: cell-based
In short: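 RS411 cells at 1000 cells/well were exposed to compound (top final 10 μM, 3-fold, 11 doses; 0.2% DMSO) at 37 °C, 5% CO2 for 1-4 days. Viability was read by CellTiter Glo luminescence after 10 min at RT. IC50 is reported as letter-code bins.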
`COc1cc2c(cc1OC(C)C)C(c1ccc(Cl)cc1)N(c1ccc(N(C)C(=O)C3CCN(CCCCCCc4ccc5c(c4)n(C)c(=O)n5C4CCC(=O)NC4=O)CC3)cc1)C(=O)C2` (stereo not shown) [I-209] was tested, and the IC50 was greater than 1 µM.
Compound `CN(CCCCCc1ccc2c(c1)n(C)c(=O)n2C1CCC(=O)NC1=O)Cc1ccc(NC(=O)[C@@H]2NC3(CCCCC3)[C@@]3(C(=O)Nc4cc(Cl)ccc43)[C@H]2c2cccc(Cl)c2F)c2c1OCCO2` (stereo partly shown) [I-210] has an IC50 of less than 0.05 µM.
Work on `COc1cc2c(cc1OC(C)C)[C@H](c1ccc(Cl)cc1)N(c1ccc(N(C)C[C@H]3CC[C@H](N4CCN(CCc5ccc6c(c5)n(C)c(=O)n6C5CCC(=O)NC5=O)CC4)CC3)cc1)C(=O)C2` (stereo partly shown) [I-211] yielded an IC50 of less than 0.05 µM.
`COc1cc2c(cc1OC(C)C)C(c1ccc(Cl)cc1)N(c1ccc(N(C)C[C@H]3CC[C@H](N(C)CCCCc4ccn5c(N6CCC(=O)NC6=O)cnc5c4)CC3)cc1)C(=O)C2` (stereo partly shown) [I-212] gave an IC50 greater than 1 µM.
`CNC(=O)c1ccc(N2C(=O)[C@H]3[C@H](c4cccc(Cl)c4F)[C@@](C#N)(c4ccc(Cl)cc4F)[C@H](CC(C)(C)C)N3C2CCCCCCCC#Cc2ccc3c(c2)n(C)c(=O)n3C2CCC(=O)NC2=O)c(OC)c1` (stereo partly drawn) [I-213, 4-[(5S,6R,7S,7aR)-7-(3-chloro-2-fluoro-phenyl)-6-(4-chloro-2-fluoro-phenyl)-6-cyano-5-(2,2-dimethylpropyl)-3-[9-[1-(2,6-dioxo-3-piperidyl)-3-methyl-2-oxo-benzimidazol-5-yl]non-8-ynyl]-1-oxo-3,5,7,7a-tetrahydropyrrolo[1,2-c]imidazol-2-yl]-3-methoxy-N-methyl-benzamide] was tested, and the IC50 was greater than 1 µM.
`Cn1c(=O)n(C2CCC(=O)NC2=O)c2ccc(C#CCCCCCCCCN3[C@@H](C(=O)Nc4ccc(C(=O)O)cc4)[C@H](c4cccc(Cl)c4F)[C@]4(C(=O)Nc5cc(Cl)ccc54)C34CCCCC4)cc21` (stereo partly drawn) [I-214, 4-((3′R,4'S,5′R)-6″-chloro-4′-(3-chloro-2-fluorophenyl)-1′-(10-(1-(2,6-dioxopiperidin-3-yl)-3-methyl-2-oxo-2,3-dihydro-1H-benzo[d]imidazol-5-yl)dec-9-yn-1-yl)-2″-oxodispiro[cyclohexane-1,2′-pyrrolidine-3′,3″-indoline]-5′-carboxamido)benzoic acid] showed an IC50 of 0.05 to 0.1 µM.
Compound `Cn1c(=O)n(C2CCC(=O)NC2=O)c2ccc(C#CCCCCCN3CCC(NC(=O)[C@@H]4NC5(CCCCC5)[C@@]5(C(=O)Nc6cc(Cl)ccc65)[C@H]4c4cccc(Cl)c4F)CC3)cc21` (stereo partly shown) [I-224] has an IC50 of less than 0.05 µM.
